Source: patent publication US5463062A, “Substituted cyclohexane derivatives, processes for their preparation and the use of the compounds for treating diseases” (Hoechst Aktiengesellschaft, priority 1992, dated 1995)

Tested on: glucose-6-phosphatase
Assay: not given
Details: in words, literature; cited from earlier work

| Compound | inhibition of glucose-6-phosphatase |
| --- | --- |
| S=C=Nc1ccccc1C=Cc1ccccc1N=C=S [2,2'-diisothiocyanatostilbene] | non-specific inhibitors of glucose-6-phosphatase |
| CC(=O)Oc1ccccc1C=Cc1ccccc1N=C=S [2-isothiocyanato-2'-acetoxystilbene] | non-specific inhibitors of glucose-6-phosphatase |
| O=C(O)c1cc(SSc2ccc([N+](=O)[O-])c(C(=O)O)c2)ccc1[N+](=O)[O-] [5,5'-dithiobis-2-nitrobenzoic acid] | non-specific inhibitors of glucose-6-phosphatase |
| O=C(CCc1ccc(O)cc1)c1c(O)cc(O)cc1O[C@@H]1O[C@H](CO)[C@@H](O)[C@H](O)[C@H]1O [phlorrhizin] | non-specific inhibitors of glucose-6-phosphatase |

Target: T1, glucose-6-phosphatase system (Rattus norvegicus, UniProt F7EWB7)
T1 construct: To prepare the microsomal fraction containing the glucose-6-phosphatase, fresh liver organs from male Wistar rats were used; from tissue; host or cells: liver of male Wistar rats, microsomal fraction
T1 sequence (F7EWB7 1-429): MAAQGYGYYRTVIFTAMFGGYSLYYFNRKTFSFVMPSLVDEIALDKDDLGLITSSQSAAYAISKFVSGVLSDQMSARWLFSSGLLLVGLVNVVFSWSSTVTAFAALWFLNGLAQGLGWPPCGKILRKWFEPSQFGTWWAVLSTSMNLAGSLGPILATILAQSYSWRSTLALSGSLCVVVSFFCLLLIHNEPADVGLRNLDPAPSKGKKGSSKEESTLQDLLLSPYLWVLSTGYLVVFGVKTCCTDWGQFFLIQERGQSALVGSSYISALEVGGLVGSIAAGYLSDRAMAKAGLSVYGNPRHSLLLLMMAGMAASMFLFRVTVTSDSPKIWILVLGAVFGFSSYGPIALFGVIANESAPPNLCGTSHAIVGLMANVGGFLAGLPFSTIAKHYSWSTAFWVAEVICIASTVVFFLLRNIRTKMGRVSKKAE
Assay: enzyme assay of glucose-6-phosphatase activity in liver microsomes (phosphate liberated from glucose-6-phosphate)
Type: biochemical, male Wistar rats
Details: TABLE; rat liver microsomes, glucose-6-phosphate 1 mmol/l, pH 7.0, 20 min at room temperature
Procedure: The effect of the compounds according to the invention on the glucose-6-phosphatase system has been investigated in an enzyme assay in liver microsomes.
To prepare the microsomal fraction containing the glucose-6-phosphatase, fresh liver organs from male Wistar rats were used and processed as described in the literature [Canfield, W. K. and Arion, W. J., J. Biol. Chem. 263, 7458-7460, (1988)]. This microsomal fraction can be stored at -70° C. without significant loss of activity for at least 2 months. The glucose-6-phosphatase activity was detected as indicated in the literature [Arion, W. J. in Methods Enzymol. 174, Academic Press 1989, pages 58-67) by determining the phosphate liberated from glucose-6-phosphate. 0.1 ml of assay mixture contained glucose-6-phosphate(1 mmol/l), the test substance, 0.1 mg of microsomal fraction and 100 mmol/l HEPES buffer (4-(2-hydroxyethyl)piperazine-1-ethanesulfonic acid), pH 7.0. The reaction was started by adding the enzyme. After 20 min at room temperature, the reaction was stopped by adding 0.2 ml of phosphate reagent. The sample was incubated at 37° C. for 30 min, and the absorption (A) of the blue color was subsequently measured at 570 nm. The inhibitory activity of the test substance was found by comparison with a control reaction which contained no test substance, using the formula [formula]
Where necessary, the inhibitory effect of the test substance was determined as a function of the test substance concentration employed, and from this the concentration for 50% inhibition of enzyme activity (IC50) was calculated.
The IC50 was determined for the compounds listed hereinafter: […]

| Compound | IC50 |
| --- | --- |
| O=C(CC(C1CCCCC1)n1ccnc1)O[C@@H]1C[C@](OCCCc2ccc(Cl)cc2)(C(=O)O)C[C@@H](O)[C@H]1O (some centres unmarked) [Example 69] | 170 µM |
| O=C(CCC1CCCCC1)O[C@@H]1C[C@](OCC2CC2c2ccc(Cl)cc2)(C(=O)O)C[C@@H](O)[C@H]1O (some centres unmarked) [Example 113] | 3.7 µM |
| O=C(O[C@@H]1C[C@](OCCCc2ccc(Cl)cc2)(C(=O)O)C[C@@H](O)[C@H]1O)c1snnc1-c1ccccc1 [Example 116] | 4.5 µM |
| C=Cc1ccc(C(=O)O[C@@H]2C[C@](OCCCc3ccc(Cl)cc3)(C(=O)O)C[C@@H](O)[C@H]2O)cc1 [Example 118] | 1.3 µM |

Other lines, results leading:

| IC50 | Compound |
| --- | --- |
| 5 µM | O=C(CCCCC1CCCCC1)O[C@@H]1C[C@](OCCCc2ccc(Cl)cc2)(C(=O)O)C[C@@H](O)[C@H]1O [Example 114] |
| 8.9 µM | O=C(O[C@@H]1C[C@](OCCCc2ccc(Cl)cc2)(C(=O)O)C[C@@H](O)[C@H]1O)C1CCCCC1 [Example 115] |
| 41 µM | CC(C)CCC(=O)O[C@@H]1C[C@](OCCCc2ccc(Cl)cc2)(C(=O)O)C[C@@H](O)[C@H]1O [Example 117] |
| 12 µM | O=C(COc1ccccc1)O[C@@H]1C[C@](OCCCc2ccc(Cl)cc2)(C(=O)O)C[C@@H](O)[C@H]1O [Example 119] |
| 0.69 µM | O=C(CCC1CCCCC1)O[C@@H]1C[C@](OCCCc2ccc(Cl)cc2)(C(=O)O)C[C@@H](O)[C@H]1O [Example 120] |

Same assay, conditions: in words

| Compound | inhibition of the glucose-6-phosphatase system |
| --- | --- |
| O=C(/C=C/c1ccc(O)cc1)O[C@@H]1C[C@](OCc2cccc3ccccc23)(C(=O)O)C[C@H](O)[C@H]1O [Example 14, [1S,3R,4R,5S]-1-(1-naphthylmethyl)oxy-3-[(E)-3-(4-hydroxyphenyl)-2-propenoyl]oxy-4,5-dihydroxycyclohexanecarboxylic acid] | inhibitors of the glucose-6phosphatase system |

Same assay, conditions: rat liver microsomes, glucose-6-phosphate 1 mmol/l, pH 7.0, 20 min at room temperature

| Compound | IC50 |
| --- | --- |
| O=C(/C=C/c1ccc(O)cc1)O[C@@H]1C[C@](OCc2ccccc2)(C(=O)O)C[C@H](O)[C@H]1O [Example 1, [1S,3R,4R,5S]-3-[(E)-3-(4-hydroxyphenyl)propenoyl]oxy-4,5-dihydroxy-1-phenylmethyloxy-cyclohexanecarboxylic acid] | 190 µM |
| O=C(/C=C/c1ccc(O)cc1)O[C@@H]1C[C@](OCc2cccs2)(C(=O)O)C[C@H](O)[C@H]1O [Example 2, [1S,3R,4R,5S]-3-[(E)-3-(4-hydroxyphenyl)-2-propenoyl]oxy-4,5-dihydroxy-1-(2-thienylmethyl)oxycyclohexanecarboxylic acid] | 110 µM |
| C#CCO[C@@]1(C(=O)O)C[C@H](O)[C@@H](O)[C@H](OC(=O)/C=C/c2ccc(O)cc2)C1 [Example 3, [1S,3R,4R,5S]-3-[(E)-3-(4-hydroxyphenyl)-2-propenoyl]oxy-4,5-dihydroxy-1-(2-propynyl)oxycyclohexanecarboxylic acid] | 560 µM |

More lines, now with the values ahead:

| IC50 | Compound |
| --- | --- |
| 26 µM | O=C(O[C@@H]1C[C@](OCCCc2ccc(Cl)cc2)(C(=O)O)C[C@H](O)[C@H]1O)c1ccccn1 [Example 4, [1S,3R,4R,5S]-1-(4-chlorophenylpropyl)oxy-4,5-dihydroxy-3-(2-pyridinecarbonyl)oxycyclohexanecarboxylic acid] |
| 9.3 µM | O=C(CCc1ccc(O)cc1)O[C@@H]1C[C@](OCCCc2ccc(Cl)cc2)(C(=O)O)C[C@@H](O)[C@H]1O [Example 44, [1S,3R,4R,5S]-1-(4-chlorophenylpropyl)oxy-3-[(E)-3-(4-hydroxyphenyl)propoyl]oxy-4,5-dihydroxycyclohexanecarboxylic acid] |

Same assay, conditions: rat liver microsomes, glucose-6-phosphate 1 mmol/l, pH 7.0, 20 min at room temperature; unit printed as "82 M"

| IC50 | Compound |
| --- | --- |
| 230 µM | CCCO[C@@]1(C(=O)O)C[C@H](O)[C@@H](O)[C@H](OC(=O)/C=C/c2ccc(O)cc2)C1 [Example 8, [1S,3R,4R,5S]-3-[(E)-3-(4-hydroxyphenyl)-2-propenoyl]oxy-4,5-dihydroxy-1-propyloxycyclohexanecarboxylic acid] |
